According to patent US20180179256A1 (priority 2015, published 2018):

Tested on: HLA-DR
Type: cell-based, human

RGILKRNSSSSSTDS [5-HUMAN-B, reference compound]
% Inhibition by HLA-DR blocking Ab: 100%
